Patent US20250122192A1, “5-PYRIMIDINECARBOXAMIDE DERIVATIVES AND METHODS OF USING THE SAME” (Rgenta Therapeutics, Inc., priority 2021, published 2025)
Structures can show the parent of a compound that is named as a salt.

What follows are molecules tested on PMS1 (assay: Mini-gene reporter assay-PMS1). Details: Homo sapiens, HEK293, PMS1 mini-gene firefly luciferase reporter transiently transfected into HEK293 cells; read-out: PMS1 IC50.
Assay type: cell-based
How it was run: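 HEK293 cells transiently transfected with a mini-gene construct: skipped exon with flanking introns and exons fused to firefly luciferase in pcDNA3.1, so exon inclusion raises luciferase signal. Compounds tested in duplicate dilutions, luminescence read after incubation, EC50 fitted by Levenberg-Marquardt.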

SMILES | IC50
CCOc1nc(N2CCOC3(CNC3)C2)ncc1C(=O)Nc1cc(F)c2nc(C)cn2c1 [Compound 144] | > 3000 nM
CCOc1nc(N2CCC(NC)C2)ncc1C(=O)Nc1cc(OC)c2nc(C)cn2c1 (centres unmarked) [Compound 283, 4-ethoxy-N-(8-methoxy-2-methylimidazo[1,2-a]pyridin-6-yl)-2-(3-(methylamino)pyrrolidin-1-yl)pyrimidine-5-carboxamide formate] | < 500 nM
CCOc1nc(N2CCCC(N3CCNCC3)C2)ncc1C(=O)Nc1cc(F)c2nc(C)cn2c1 (centres unmarked) [Compound 194] | 500 to 1000 nM
CCOc1nc(N2CCN[C@@H](C(C)C)C2)ncc1C(=O)Nc1cn2cc(C)nc2c(C)n1 [Compound 65] | 500 to 1000 nM
CCOc1nc(N2CCNCC2)ncc1C(=O)Nc1cc(F)c2nn(C)cc2c1 [Compound 26, 4-ethoxy-N-(7-fluoro-2-methyl-2H-indazol-5-yl)-2-(piperazin-1-yl)pyrimidine-5-carboxamide] | 500 to 1000 nM
CCOc1nc(N(C)C2CCCNCC2)ncc1C(=O)Nc1cn2cc(C)nc2c(C)n1 (centres unmarked) [Compound 46] | < 500 nM
CCOc1nc(N2CCN[C@@H](C)C2)ncc1C(=O)Nc1cc(F)c2nc(C)cn2c1 [Compound 7, 4-ethoxy-N-{8-fluoro-2-methylimidazo[1,2-a]pyridin-6-yl}-2-[(3S)-3-methylpiperazin-1-yl]pyrimidine-5-carboxamide] | 500 to 1000 nM
CCOc1nc(N(C)C2CCNCC2)ncc1C(=O)Nc1cn2cc(C)nc2cn1 [Compound 256, 4-ethoxy-2-(methyl(piperidin-4-yl)amino)-N-(2-methylimidazo[1,2-a]pyrazin-6-yl)pyrimidine-5-carboxamide] | < 500 nM
CCOc1nc(N2CCC[C@H]3NCC[C@H]32)ncc1C(=O)Nc1cc(F)c2nc(C)cn2c1 (racemic) [Compound 178] | < 500 nM
CCOc1nc(N2CCC(NCCOC)CC2)ncc1C(=O)Nc1cc(F)c2nc(C)cn2c1 [Compound 155] | < 500 nM
CCN(c1ncc(C(=O)Nc2cn3cc(C)nc3c(C)n2)c(COC)n1)C1CCNCC1 [Compound 36] | < 500 nM
Cn1cc2cc(NC(=O)c3cnc(N4CCNCC4)nc3OCC(F)F)cc(F)c2n1 [Compound 302, 4-(2,2-difluoroethoxy)-N-(7-fluoro-2-methyl-2H-indazol-5-yl)-2-(piperazin-1-yl)pyrimidine-5-carboxamide] | > 3000 nM
COc1nc(N(C)C2CCNCC2)ncc1C(=O)Nc1cn2cc(C)nc2c(C)n1 [Compound 253, N-(2,8-dimethylimidazo[1,2-a]pyrazin-6-yl)-4-methoxy-2-(methyl(piperidin-4-yl)amino) pyrimidine-5-carboxamide formate] | < 500 nM
CCOc1nc(N(C)C2CCNCC2)ncc1C(=O)Nc1cc(F)c2nn(C)cc2c1 [Compound 275, 4-ethoxy-N-(7-fluoro-2-methyl-2H-indazol-5-yl)-2-(methyl(piperidin-4-yl)amino) pyrimidine-5-carboxamide formate] | < 500 nM
CCOc1nc(N(CC)C2CCCNCC2)ncc1C(=O)Nc1cc(F)c2nc(C)cn2c1 (centres unmarked) [Compound 168] | < 500 nM
CCOc1nc(N2CC[C@@H]3CNC[C@@H]3C2)ncc1C(=O)Nc1cn2cc(C)nc2c(C)n1 (racemic) [Compound 29] | > 3000 nM
CCOc1nc(N2CCNCC2)ncc1C(=O)Nc1cn2cc(C)nc2cn1 [Compound 9, 4-ethoxy-N-{2-methylimidazo[1,2-a]pyrazin-6-yl}-2-(piperazin-1-yl)pyrimidine-5-carboxamide] | 1000 to 3000 nM
CCOc1nc(N2CC3(CCNCC3)C2)ncc1C(=O)Nc1cn2cc(C)nc2c(C)n1 [Compound 17] | < 500 nM
CCOc1nc(N2CCNC(CC(F)F)C2)ncc1C(=O)Nc1cc(F)c2nc(C)cn2c1 (centres unmarked) [Compound 110] | 1000 to 3000 nM
CCOc1nc(N2C[C@H]3CNCC[C@H]32)ncc1C(=O)Nc1cn2cc(C)nc2c(C)n1 (racemic) [Compound 95] | < 500 nM
CCOc1nc(N2CCC3(CC2)CNCCO3)ncc1C(=O)Nc1cc(F)c2nc(C)cn2c1 [Compound 204] | 500 to 1000 nM
CCOc1nc(N2CCN3CCCC3C2)ncc1C(=O)Nc1cc(F)c2nc(C)cn2c1 (centres unmarked) [Compound 5, 4-ethoxy-N-{8-fluoro-2-methylimidazo[1,2-a]pyridin-6-yl}-2-{octahydropyrrolo[1,2-a]pyrazin-2-yl}pyrimidine-5-carboxamide] | 1000 to 3000 nM

SMILES | IC50
CCOc1nc(N2CC(C3CCNCC3)C2)ncc1C(=O)Nc1cc(F)c2nc(C)cn2c1 [Compound 141] | 500 to 1000 nM
CCOc1nc(N2CCC3(CC2)COC(C)CN3)ncc1C(=O)Nc1cn2cc(C)nc2c(C)n1 (centres unmarked) [Compound 61] | > 3000 nM
CCOc1nc(NC2CCNCC2)ncc1C(=O)Nc1cn2cc(C)nc2c(C)n1 [Compound 251, N-(2,8-dimethylimidazo[1,2-a]pyrazin-6-yl)-4-ethoxy-2-(piperidin-4-ylamino) pyrimidine-5-carboxamide formate] | 1000 to 3000 nM
CCOc1nc(N(CC)C2CCCNC2)ncc1C(=O)Nc1cc(F)c2nc(C)cn2c1 (centres unmarked) [Compound 215] | 1000 to 3000 nM
CCOc1nc(N2CCNC(C)(C)C2)ncc1C(=O)Nc1cc(F)c2nn(C)cc2c1 [Compound 265, 2-(3,3-dimethylpiperazin-1-yl)-4-ethoxy-N-(7-fluoro-2-methyl-2H-indazol-5-yl)pyrimidine-5-carboxamide] | > 3000 nM
CCOc1nc(N2CCN(C)CC2)ncc1C(=O)Nc1cc(F)c2nn(C)cc2c1 [Compound 259, 4-ethoxy-N-(7-fluoro-2-methyl-2H-indazol-5-yl)-2-(4-methylpiperazin-1-yl)pyrimidine-5-carboxamide formate] | 1000 to 3000 nM
CCOc1nc(N2C[C@@H](C)N[C@@H](C)C2)ncc1C(=O)Nc1cc(F)c2nn(C)cc2c1 [Compound 280, 2-((3R,5S)-3,5-dimethylpiperazin-1-yl)-4-ethoxy-N-(7-fluoro-2-methyl-2H-indazol-5-yl)pyrimidine-5-carboxamide 4-methylbenzenesulfonate] | 1000 to 3000 nM
CCOc1nc(N2C3CCNCC2CC3)ncc1C(=O)Nc1cc(F)c2nc(C)cn2c1 (centres unmarked) [Compound 175] | > 3000 nM
CCOc1nc(N2CCCC3CNCCC32)ncc1C(=O)Nc1cc(F)c2nc(C)cn2c1 (centres unmarked) [Compound 132] | < 500 nM
CCOc1nc(N(C)C2CCCCNC2)ncc1C(=O)Nc1cc(F)c2nc(C)cn2c1 (centres unmarked) [Compound 138] | 1000 to 3000 nM
CCOc1nc(N2CC[C@@H]3NCC[C@@H]3C2)ncc1C(=O)Nc1cn2cc(C)nc2c(C)n1 (racemic) [Compound 90] | 1000 to 3000 nM
CCOc1nc(N2CC[C@@H](N(C)C)C2)ncc1C(=O)Nc1cc(F)c2nn(C)cc2c1 [Compound 292, (R)-2-(3-(dimethylamino)pyrrolidin-1-yl)-4-ethoxy-N-(7-fluoro-2-methyl-2H-indazol-5-yl)pyrimidine-5-carboxamide formate] | 1000 to 3000 nM
CCOc1nc(N2CCC(C3NCC34CCC4)CC2)ncc1C(=O)Nc1cc(F)c2nc(C)cn2c1 (centres unmarked) [Compound 133] | 500 to 1000 nM
CCOc1nc(N2CC[C@H](NC)C2)ncc1C(=O)Nc1cc(OC)c2nn(C)cc2c1 [Compound 298, (S)-4-ethoxy-N-(7-methoxy-2-methyl-2H-indazol-5-yl)-2-(3-(methylamino)pyrrolidin-1-yl)pyrimidine-5-carboxamide 4-methylbenzenesulfonate] | 1000 to 3000 nM
CCOc1nc(N2CCC(CN(C)C)CC2)ncc1C(=O)Nc1cc(F)c2nc(C)cn2c1 [Compound 300, 2-(4-((dimethylamino)methyl)piperidin-1-yl)-4-ethoxy-N-(8-fluoro-2-methylimidazo[1,2-a]pyridin-6-yl)pyrimidine-5-carboxamide formate] | 1000 to 3000 nM
CCOc1nc(N2CCC(C3CNC3)CC2)ncc1C(=O)Nc1cc(F)c2nc(C)cn2c1 [Compound 142] | 1000 to 3000 nM
CCOc1nc(N2CC(N3CCNCC3)C2)ncc1C(=O)Nc1cc(F)c2nc(C)cn2c1 [Compound 218] | > 3000 nM
CCOc1nc(N2CCCNC(CO)C2)ncc1C(=O)Nc1cc(F)c2nc(C)cn2c1 (centres unmarked) [Compound 121] | 1000 to 3000 nM
CCOc1nc(N2CCC(CNC)C2)ncc1C(=O)Nc1cn2cc(C)nc2c(C)n1 (centres unmarked) [Compound 62] | < 500 nM
CCOc1nc(N2CC3(CNC3)C2)ncc1C(=O)Nc1cn2cc(C)nc2c(C)n1 [Compound 18, 2-{2,6-diazaspiro[3.3]heptan-2-yl}-N-{2,8-dimethylimidazo[1,2-a]pyrazin-6-yl}-4-ethoxypyrimidine-5-carboxamide] | < 500 nM
CCOc1nc(N2CCC3(CCNCC3)C2)ncc1C(=O)Nc1cn2cc(C)nc2c(C)n1 [Compound 88] | < 500 nM

Same assay, conditions: Homo sapiens, HEK293, read-out: PMS1 IC50 (nM)

SMILES | IC50
CCOc1nc(N(CC)C2CCNCC2)ncc1C(=O)Nc1ccn2nc(C)cc2c1 [Compound 288, 4-ethoxy-2-(ethyl(piperidin-4-yl)amino)-N-(2-methylpyrazolo[1,5-a]pyridin-5-yl)pyrimidine-5-carboxamide formate] | 500 to 1000 nM

Same assay, conditions: Homo sapiens; at 5 μM; PMS1 mini-gene firefly luciferase reporter in HEK293 cells; read-out: PMS1% Effect at 5 μM

SMILES | activation at 5 µM
CCOc1nc(N2CC[C@@H](NC)C2)ncc1C(=O)Nc1ccn2nc(C)cc2c1 [Compound 313, 4-ethoxy-2-[(3R)-3-(methylamino)pyrrolidin-1-yl]-N-2-methylpyrazolo[1,5-a]-pyridin-5-ylpyrimidine-5-carboxamide] | > 75%
CCOc1nc(N2CCCC3(CNCCO3)C2)ncc1C(=O)Nc1cc(F)c2nc(C)cn2c1 (centres unmarked) [Compound 172] | < 50%
CCOc1nc(N2CC[C@H](NC)C2)ncc1C(=O)Nc1ccn2nc(C)cc2c1 [Compound 314, 4-ethoxy-2-[(3S)-3-(methylamino)pyrrolidin-1-yl]-N-2-methylpyrazolo[1,5-a]-pyridin-5-ylpyrimidine-5-carboxamide] | > 75%
CCOc1nc(N2CC(C3CCNC3)C2)ncc1C(=O)Nc1cn2cc(C)nc2c(C)n1 (centres unmarked) [Compound 69] | 50 to 75%
CCOc1nc(N2CCC(C3(O)CNC3)CC2)ncc1C(=O)Nc1cn2cc(C)nc2c(C)n1 [Compound 75] | < 50%
CCOc1nc(N2CC(C)OC3(CCNCC3)C2)ncc1C(=O)Nc1cc(F)c2nc(C)cn2c1 (centres unmarked) [Compound 162] | < 50%
